The numbers were not newly measured in patent publication US6506736B1, “Method for obtaining and using a combination of a purine nucleotide and nitrogen monoxide donor for treating sexual dysfunction” (priority 1998, dated 2003), which cites them from elsewhere.

Molecules are shown by their SMILES.

In series [1] the test system is erection. Particulars: dogs; intravenous injection.
The subject of series [2] is erectile dysfunction. Particulars: 2800 mg L-arginine per day.

On to `Nc1ncnc2c1ncn2[C@@H]1O[C@H](COP(=O)(O)OP(=O)(O)OP(=O)(O)O)[C@@H](O)[C@H]1O` [adenosine triphosphate], for which the induction of erection entry in series [1] is listed as “induces erection”.

In the case of `N=C(N)NCCC[C@H](N)C(=O)O` [L-arginine], the “cases with favorable effect on erectile dysfunction” value in series [2] is “approximately 40%”.
